# Test results as given in EP3494850B1, “WET WIPE WITH HYDROXYACETOPHENON” (Dr. Schumacher GmbH, priority 2017, dated 2019).
# Test system: Haut der Probanden
# Test: Patch test for skin tolerance on 50 subjects
# Assay type: in vivo
# Conditions: 48 h under occlusion on the back, read at 48 h and 72 h (erythema, scaling, fissures)
# Description: Zur Prüfung der Hautverträglichkeit des Tränkungsmittels, mit dem erfindungsgemäße Feuchttücher getränkt sind, wird ein Patch-Test an 50 Probanden durchgeführt. Mit einem Patch-Test können dermatologische und kosmetische Produkte auf ihr irritatives Potential untersucht werden. Bei den 50 ausgewählten Personen im Alter zwischen 18 und 69 Jahren handelte es sich um 28 Hautgesunde, 2 Atopiker, 2 Allergiker und 18 Personen mit empfindlicher Haut.
# Für den Patch-Test wurde eine gemäß der in Tabelle 1 (Beispiel 1) angegebenen Rahmenrezeptur zusammengesetzte O/W-Emulsion für 48 Stunden unverdünnt auf den Rücken der Probanden mit Hilfe von quadratischen Kunststoffkammern (allergEAZE® clear Patch Test Chambers; SmartPractice®, Phoenix, AZ) unter Okklusion appliziert. Als Positivkontrolle diente der Modellschadstoff Natriumlaurylsulfat (SDS) in einer Konzentration von 1 % in Wasser. Als negative Kontrolle diente Wasser.
# Die Bewertung der Testreaktionen erfolgte nach 48 Stunden (30 Minuten nach der Entfernung der Okklusion) sowie nach 72 Stunden, wobei die Haut der Probanden jeweils hinsichtlich Erythem, Schuppung und Fissuren untersucht wurde.
compound,measurement,value
"CCCCCCCCCCCCOS(=O)(=O)O [SDS, Natriumlaurylsulfat]",Testpersonen mit Reaktion im Patch-Test,14 Testpersonen
